The text below walks through data of patent publication US8138168B1 (Takeda Pharmaceutical Company Limited, priority 2007, dated 2012).

The experiment deals with T1, Recombinant human renin (Homo sapiens, UniProt P00797).
T1 construct: isolate the active form (residues 67-406); made in house; host or cells: FreeStyle 293-F cells (transient expression of pcDNA3.1(+)/hREN)
T1 sequence (P00797 67-406): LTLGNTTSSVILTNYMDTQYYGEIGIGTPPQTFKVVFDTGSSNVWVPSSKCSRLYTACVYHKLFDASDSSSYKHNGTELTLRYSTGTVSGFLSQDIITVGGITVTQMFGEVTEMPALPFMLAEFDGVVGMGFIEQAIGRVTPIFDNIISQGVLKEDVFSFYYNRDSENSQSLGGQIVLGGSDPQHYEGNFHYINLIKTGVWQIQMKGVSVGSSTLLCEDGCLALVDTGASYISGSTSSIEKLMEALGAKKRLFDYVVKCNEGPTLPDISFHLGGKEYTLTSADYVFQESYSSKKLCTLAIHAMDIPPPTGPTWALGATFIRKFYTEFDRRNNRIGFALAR
Kind of experiment: In vitro enzymatic activity assay of renin inhibitors (fluorogenic peptide substrate). As to conditions: read-out: IC50 of Exemplified Compounds Against Renin. The experiment is classed as biochemical. A digest of the protocol: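 Recombinant human renin (3 nM final) pre-incubated 10 min at 37 °C with compounds in pH 7.4 Hepes/EDTA/DTT/0.1 mg/mL BSA/Brij35 buffer (optionally plus 2% BSA), 5% DMSO final; fluorogenic QXL520/HiLyteFluo488 peptide substrate added.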

Molecules are shown by their SMILES.

For the compound `CNC(Cc1ccccc1)C(=O)N1CCCC(c2nc3ccccc3[nH]2)C1` (centres unmarked) [Compound 64, 1-(3-(1H-benzo[d]imidazol-2-yl)piperidin-1-yl)-2-(methylamino)-3-phenylpropan-1-one], the IC50 was above 1000 nM.
To `COCCCn1c([C@@H]2CCCN(C(=O)C[C@H](N)Cc3ccc(C(C)(C)C)cc3)C2)nc2ccccc21` [Compound 90, (R)-3-amino-4-(4-tert-butylphenyl)-1((R)-3-(1-(3-methoxypropyl)-1H-benzo[d]imidazol-2-yl)piperidin-1-yl)butan-1-one] belongs below 100 nM; to `COCCCn1c([C@@H]2CCCN(C(=O)C[C@H](N)CNC(=O)c3ccc(-c4ccccc4)cc3)C2)nc2ccccc21` [Compound 264, N-((S)-2-amino-4-((R)-3-(1-(3-methoxypropyl)-1H-benzo[d]imidazol-2-yl)piperidin-1-yl)-4-oxobutyl)biphenyl-4-carboxamide], 100 to 1000 nM.
As to `COCCCn1c([C@@H]2CCCN(C(=O)[C@@H]3CN(C(=O)c4cccnc4Oc4ccccc4)C[C@H]3N)C2)nc2ccccc21` [Compound 366, ((3R,4S)-4-amino-1-(2-phenoxynicotinoyl)pyrrolidin-3-yl)((R)-3-(1-(3-methoxypropyl)-1H-benzo[d]imidazol-2-yl)piperidin-1-yl)methanone], the IC50 was 100 to 1000 nM.
On to `CC(=O)NCCn1c([C@@H]2CCCN(C(=O)C[C@H](N)Cc3ccc(-c4ccc(O)nc4)cc3)C2)nc2c(C)cccc21` [Compound 473, N-(2-(2-((R)-1-((R)-3-amino-4-(4-(6-hydroxypyridin-3-yl)phenyl)butanoyl)piperidin-3-yl)-4-methyl-1H-benzo[d]imidazol-1-yl)ethyl)acetamide], for which the IC50 was 100 to 1000 nM.
Under `COCCCn1c([C@@H]2CCCN(C(=O)C[C@H](N)Cc3ccncc3)C2)nc2ccccc21` [Compound 78, (R)-3-amino-1-((R)-3-(1-(3-methoxypropyl)-1H-benzo[d]imidazol-2-yl)piperidin-1-yl)-4-(pyridin-4-yl)butan-1-one] stands above 1000 nM; under `COCCCn1c([C@@H]2CCCN(C(=O)[C@@H]3CN(C(=O)Nc4cccc(OC)c4)C[C@H]3N)C2)nc2ccccc21` [Compound 367, (3S,4R)-3-amino-N-(3-methoxyphenyl)-4-((R)-3-(1-(3-methoxypropyl)-1H-benzo[d]imidazol-2-yl)piperidine-1-carbonyl)pyrrolidine-1-carboxamide], 100 to 1000 nM; under `COCCCn1c([C@@H]2CCCN(C(=O)C[C@H](N)Cc3ccc(-c4ccc5c(c4)CC(=O)N5)cc3)C2)nc2c(C)cccc21` [Compound 495, 5-(4-((R)-2-amino-4-((R)-3-(1-(3-methoxypropyl)-4-methyl-1H-benzo[d]imidazol-2-yl)piperidin-l-yl)-4-oxobutyl)phenyl)indolin-2-one], below 100 nM.
To `CC(C)(C)[C@H](N)C(=O)N1CCCC(c2nc3ccccc3[nH]2)C1` (stereo partly drawn) [Compound 56, (2S)-1-(3-(1H-benzo[d]imidazol-2-yl)piperidin-1-yl)-2-amino-3,3-dimethylbutan-1-one] belongs above 1000 nM; to `CC(=O)NCCn1c([C@@H]2CCCN(C(=O)C[C@H](N)Cc3ccc(-c4ccc5c(c4)OC(F)(F)O5)cc3)C2)nc2c(C)cccc21` [Compound 474, N-(2-(2-((R)-1-((R)-3-amino-4-(4-(2,2-difluorobenzo[d][1,3]dioxol-5-yl)phenyl)butanoyl)piperidin-3-yl)-4-methyl-1H-benzo[d]imidazol-1-yl)ethyl)acetamide], 100 to 1000 nM.
Under `COCCCn1c([C@@H]2CCCN(C(=O)[C@@H]3CN(S(=O)(=O)c4c(F)cccc4F)C[C@H]3N)C2)nc2ccccc21` [Compound 426, ((3R,4S)-4-amino-1-(2,6-difluorophenylsulfonyl)pyrrolidin-3-yl)((R)-3-(1-(3-methoxypropyl)-1H-benzo[d]imidazol-2-yl)piperidin-1-yl)methanone] stands 100 to 1000 nM; under `COCCCn1c([C@@H]2CCCN(C(=O)C[C@H](N)Cc3ccc(-c4ccc(C(=O)NCCOC)c(F)c4)cc3)C2)nc2ccccc21` [Compound 191, 4′-((R)-2-Amino-4-((R)-3-(1-(3-methoxypropyl)-1H-benzoldlimidazol-2-yl)piperidin-1-yl)-4-oxobutyl)-3-fluoro-N-(2-methoxyethyl)biphenyl-4-carboxamide], below 100 nM; under `COCCCn1c([C@@H]2CCCN(C(=O)C[C@H](N)Cc3ccc(-c4cnc(N)nc4)cc3)C2)nc2c(F)cccc21` [Compound 456, (R)-3-amino-4-(4-(2-aminopyrimidin-5-yl)phenyl)-1-((R)-3-(4-fluoro-1-(3-methoxypropyl)-1H-benzo[d]imidazol-2-yl)piperidin-1-yl)butan-1-one], below 100 nM.
With `COCCCn1c([C@@H]2CCCN(C(=O)C[C@H](N)CNC(=O)Nc3ccc(Cl)c(Cl)c3)C2)nc2ccccc21` [Compound 255, 1-((S)-2-amino-4-((R)-3-(1-(3-methoxypropyl)-1H-benzo[d]imidazol-2-yl)piperidin-1-yl)-4-oxobutyl)-3-(3,4-dichlorophenyl)urea], the IC50 is below 100 nM.
As to `COc1cccc([C@@H](N)CC(=O)N2CCCC(c3nc4ccccc4[nH]3)C2)c1OC` (stereo partly drawn) [Compound 28, (3S)-1-(3-(1H-benzo[d]imidazol-2-yl)piperidin-1-yl)-3-amino-3-(2,3-dimethoxyphenyl)propan-1-one], the IC50 was above 1000 nM.
Under `COCCCn1c([C@@H]2CCCN(C(=O)C[C@H](N)Cc3ccc(-c4ccc(C(=O)NCCO)c(F)c4)cc3)C2)nc2ccccc21` [Compound 190, 4′-((R)-2-amino-4-((R)-3-(1-(3-methoxypropyl)-1H-benzo[d]imidazol-2-yl)piperidin-1-yl)-4-oxobutyl)-3-fluoro-N-(2-hydroxyethyl)biphenyl-4-carboxamide] stands below 100 nM.
To `COCCCn1c([C@@H]2CCCN(C(=O)[C@@H]3CN(S(=O)(=O)c4ccc(Cl)c(Cl)c4)C[C@H]3N)C2)nc2ccccc21` [Compound 361, ((3R,4S)-4-amino-1-(3,4-dichlorophenylsulfonyl)pyrrolidin-3-yl)((R)-3-(1-(3-methoxypropyl)-1H-benzo[d]imidazol-2-yl)piperidin-1-yl)methanone] belongs 100 to 1000 nM.
Under `COCCCn1c([C@@H]2CCCN(C(=O)C[C@H](N)Cc3ccc(N4CCC(CCO)CC4)cc3)C2)nc2ccccc21` [Compound 236, (R)-3-amino-4-(4-(4-(2-hydroxyethyl)piperidin-1-yl)phenyl)-1-((R)-3-(1-(3-methoxypropyl)-1H-benzo[d]imidazol-2-yl)piperidin-1-yl)butan-1-one] stands below 100 nM; under `COCCCn1c([C@@H]2CCCN(C(=O)C[C@H](N)Cc3ccc(-c4c(C)noc4C)cc3)C2)nc2ccccc21` [Compound 166, (R)-3-amino-4-(4-(3,5-dimethylisoxazol-4-yl)phenyl)-1-((R)-3-(1-(3-methoxypropyl)-1H-benzo[d]imidazol-2-yl)piperidin-1-yl)butan-1-one], 100 to 1000 nM; under `COCCCn1c(C2CCCN(C(=O)C[C@H](N)Cc3ccc4ccccc4c3)C2)nc2ccc(OC)nc21` (stereo partly drawn) [Compound 100, (R)-3-amino-1-(3-(5-methoxy-3-(3-methoxypropyl)-3H-imidazo[4,5-b]pyridin-2-yl)piperidin-1-yl)-4-(naphthalen-2-yl)butan-1-one], 100 to 1000 nM.
